Test results taken from the NIST ThermoML archive (doi:10.1021/je060271a).
± gives the expanded uncertainty stated by the source.

Conditions: 303.15 K, Liquid, Vibrating tube method

CCCCCCC(=O)OCC(COC(=O)CCCCCC)(COC(=O)CCCCCC)COC(=O)CCCCCC [pentaerythritol tetraheptanoate]
Conditions	mass density [kg/m3]
14618 kPa	979.8 ± 1.2
14643 kPa	979.6 ± 1.2
14669 kPa	979.7 ± 1.2
14835 kPa	979.7 ± 1.2
14866 kPa	979.8 ± 1.2
14893 kPa	979.8 ± 1.2
14920 kPa	979.9 ± 1.2
14947 kPa	979.9 ± 1.2
14979 kPa	979.9 ± 1.2
15006 kPa	979.9 ± 1.2
15179 kPa	980 ± 1.2
15268 kPa	980.1 ± 1.2
15330 kPa	980.1 ± 1.2
15358 kPa	980.1 ± 1.2
15511 kPa	980.2 ± 1.2
15757 kPa	980.3 ± 1.2
15823 kPa	980.4 ± 1.2
15852 kPa	980.4 ± 1.2
15911 kPa	980.5 ± 1.2
15969 kPa	980.5 ± 1.2
15996 kPa	980.5 ± 1.2
16084 kPa	980.4 ± 1.2
16171 kPa	980.5 ± 1.2
16226 kPa	980.7 ± 1.2
16314 kPa	980.7 ± 1.2
16348 kPa	980.7 ± 1.2
16441 kPa	980.7 ± 1.2
16499 kPa	980.7 ± 1.2
16527 kPa	980.8 ± 1.2
16556 kPa	980.8 ± 1.2
16591 kPa	980.8 ± 1.2
16620 kPa	980.9 ± 1.2
16684 kPa	980.8 ± 1.2
16714 kPa	981 ± 1.2
16809 kPa	980.9 ± 1.2
16906 kPa	981 ± 1.2
16937 kPa	981.1 ± 1.2
16967 kPa	981.1 ± 1.2
17004 kPa	981 ± 1.2
17035 kPa	981 ± 1.2
17066 kPa	981.1 ± 1.2
17103 kPa	981.1 ± 1.2
17134 kPa	981.1 ± 1.2
17305 kPa	981.2 ± 1.2
17337 kPa	981.2 ± 1.2
17369 kPa	981.4 ± 1.2
17407 kPa	981.3 ± 1.2
17756 kPa	981.5 ± 1.2
17796 kPa	981.5 ± 1.2
17831 kPa	981.5 ± 1.2
17865 kPa	981.5 ± 1.2
17899 kPa	981.6 ± 1.2
17940 kPa	981.7 ± 1.2
17975 kPa	981.7 ± 1.2
18052 kPa	981.6 ± 1.2
18128 kPa	981.7 ± 1.2
18164 kPa	981.8 ± 1.2
18201 kPa	981.7 ± 1.2
18237 kPa	981.8 ± 1.2
18282 kPa	981.7 ± 1.2
18319 kPa	981.9 ± 1.2
18356 kPa	981.8 ± 1.2
18394 kPa	981.8 ± 1.2
18458 kPa	981.9 ± 1.2
18488 kPa	981.8 ± 1.2
18517 kPa	981.8 ± 1.2
18612 kPa	982 ± 1.2
18935 kPa	982.2 ± 1.2
18973 kPa	982.2 ± 1.2
19005 kPa	982.2 ± 1.2
19038 kPa	982.3 ± 1.2
19070 kPa	982.2 ± 1.2
19102 kPa	982.2 ± 1.2
19342 kPa	982.4 ± 1.2
19381 kPa	982.5 ± 1.2
19414 kPa	982.5 ± 1.2
19448 kPa	982.5 ± 1.2
19484 kPa	982.6 ± 1.2
19774 kPa	982.5 ± 1.2
19918 kPa	982.7 ± 1.2
19954 kPa	982.7 ± 1.2
19989 kPa	982.8 ± 1.2
20030 kPa	982.7 ± 1.2
20066 kPa	982.9 ± 1.2
20143 kPa	982.9 ± 1.2
20336 kPa	982.9 ± 1.2
20372 kPa	982.9 ± 1.2
20409 kPa	983 ± 1.2
20454 kPa	983 ± 1.2
20490 kPa	983.1 ± 1.2
20527 kPa	983.1 ± 1.2
20572 kPa	983.1 ± 1.2
20609 kPa	983.2 ± 1.2
20647 kPa	983.1 ± 1.2
20691 kPa	983.2 ± 1.2
20729 kPa	983.3 ± 1.2
20767 kPa	983.1 ± 1.2
20812 kPa	983.2 ± 1.2
20936 kPa	983.2 ± 1.2
20976 kPa	983.4 ± 1.2
21014 kPa	983.4 ± 1.2
21054 kPa	983.3 ± 1.2
21101 kPa	983.4 ± 1.2
21140 kPa	983.4 ± 1.2
21179 kPa	983.5 ± 1.2
21227 kPa	983.4 ± 1.2
21267 kPa	983.4 ± 1.2
21314 kPa	983.5 ± 1.2
21354 kPa	983.4 ± 1.2
21444 kPa	983.6 ± 1.2
21526 kPa	983.6 ± 1.2
21576 kPa	983.5 ± 1.2
